From patent US8440637B2, “Combination treatment for the treatment of hepatitis C virus infection” (priority 2007, dated 2013)
Strand notation (5' to 3'): a small letter for the sugar, then the base; units joined by * are phosphorothioate-linked, units joined directly phosphodiester-linked; [ ] holds rarer units or linkages, { } end groups; capitals alone tell only the bases. l = locked nucleic acid (LNA); [5mC] = 5-methylcytosine; d = 2'-deoxy (DNA)

Columns and labels:
[1] = tested on: ApoB-100 mRNA; experiment: ApoB-100 mRNA expression in liver by qPCR after dosing apoB antisense oligonucleotides; assay type: in vivo, mouse; details: for ApoB-100 mRNA down-regulation (in words): 10, 15 or 25 mg/kg SEQ ID NO 34, 25 mg/kg SEQ ID NO 17; for down regulation of ApoB-100 mRNA relative to saline: single dose of 10, 15 or 25 mg/kg, C57BL/6 female mice, 24 hours after dosing; for reduction of ApoB-100 mRNA expression: day 8
Method: (§1) In this study 5 mg/kg/dose were dosed on 3 consecutive days (one dose/day i.v.) and animals were sacrificed 24 hours after last dosing. At sacrifice, liver and retro orbital sinus blood was sampled. Serum was prepared from blood for analysis of cholesterol. RNA was isolated from the liver and the expression of ApoB-100 mRNA was measured.
(§2) In this study three different concentrations (10, 15 and 25 mg/kg) of SEQ ID NO 17 (Table 1) and SEQ ID NO 34 (Table 1) were examined for duration of action on ApoB-100 mRNA expression and serum cholesterol level. SEQ ID NO 17 and SEQ ID NO 34 were given as a single dose of 10, 15 or 25 mg/kg to C57BL/6 female mice. Mice were sacrificed at different time points (1, 3, 5 and 8 days) after dosing; liver and serum were examined for ApoB-100 mRNA expression, liver oligonucleotide concentration and cholesterol and ALT, respectively.
Liver sampled at sacrifice was analysed for ApoB-100 mRNA expression by qPCR. Data was normalized to Gapdh and presented relative to the data obtained by dosing saline. One dose of 10, 15 or 25 mg/kg of SEQ ID NO 17 or SEQ ID NO 34 was very effective to down regulate ApoB-100 mRNA in liver (FIG. 3).
A single dose of SEQ ID NO 17 (Table 1) and SEQ ID NO 34 (Table 1) at different concentrations was administered to C57BL/6J mice to find ED50 values for cholesterol. Duration of action was also included in this study, because we previously have seen that maximum effect of a single dose not always was achieved 24 hours after dosing. […] In this study we therefore have chosen lower concentrations (1, 2.5 and 5 mg/kg).
Liver sampled at sacrifice was analysed for ApoB-100 mRNA expression by qPCR. Data was normalized to Gapdh and presented relative to the data obtained by dosing saline. One dose of 10, 15 or 25 mg/kg of SEQ ID NO 17 or SEQ ID NO 34 was very effective to down regulate ApoB-100 mRNA in liver (FIG. 5).
The effect on ApoB-100 mRNA was examined at different days after dosing 1.0 or 5.0 mg/kg (one dose day 0) of the three LNA antisense oligonucleotides 12-mer SEQ ID NO 34 (Table 1), SEQ ID NO 26 (Table 1) 13-mer and 14-mer SEQ ID NO 17 (Table 1) all targeting ApoB mRNA.
Liver sampled at sacrifice was analysed for ApoB-100 mRNA expression by qPCR. Data was normalized to Gapdh and presented relative to the data obtained by dosing saline. Dosing 3* 1 or 5 mg/kg of SEQ ID NO 34, SEQ ID NO 17 or SEQ ID NO 26 was very effective to down regulate ApoB-100 mRNA in liver (FIG. 7). […] SEQ ID NO 17 dosed 3* 1 mg/kg/dose or 5 mg/kg/dose down regulated target mRNA with 50% and 70% respectively.

[2] = tested on: ApoB-100 mRNA; experiment: Serum total cholesterol after dosing apoB antisense oligonucleotides; assay type: in vivo, mouse
Method: Total cholesterol level is measured in plasma using a colometric assay Cholesterol CP from ABX Pentra. The cholesterol is measured following enzymatic hydrolysis and oxidation. 21.5 μL water was added to 1.5 μL plasma. 250 μL reagent is added and within 5 min the cholesterol content is measured at a wavelength of 540 nm. Measurements on each animal was made in duplicates. The sensitivity and linearity was tested with 2 fold diluted control compound (ABX Pentra N control). The relative Cholesterol level was determined by subtraction of the background and presented relative to the cholesterol levels in plasma of saline treated mice.
as §1, §2
Blood serum used to measure cholesterol was sampled at sacrifice. Twenty-four hours after dosing SEQ ID NO 17 serum total cholesterol was reduced 25-40%, and dosing SEQ ID NO 34 gave 40-55% reduction in total cholesterol. At day 3, the total cholesterol level was further reduced: SEQ ID NO 17 gave 70-90% reduction in a dose dependent manner after doing 10, 15 or 25 mg/kg. SEQ ID NO 34 reduced total cholesterol with 90-95% relative to the saline control group. At day 5-8 the total cholesterol level increased in all groups except the group dosed SEQ ID NO 17 at 10 mg/kg. (FIG. 4.).
Blood serum was sampled at sacrifice and used to measure cholesterol. The serum total cholesterol level reflected the mRNA expression of ApoB-100; dose dependent reduction with best effect at 5 days after dosing SEQ ID NO 17 at 1 and 2.5 mg/kg and similar effect at days 3, 5 and 8 after dosing 5 mg/kg (50% reduction). Dose dependent effect was also obtained after dosing SEQ ID NO 34 with best effect at day 3 after dosing 5 mg/kg (70% reduction) with following increase in cholesterol level (60% reduction at day 8 and 45% at day 16).
At sacrifice blood for serum was sampled and used to measure cholesterol.

[3] = tested on: miR-122a; experiment: Melting temperature (Tm) of LNA anti-miR/miR-122a RNA duplex; assay type: physicochemical, human; details: Table 2; towards synthetic miR-122a RNA oligonucleotide with phosphorothioate linkages; PS backbone
Method: The melting temperatures were assessed towards the mature miR-122a sequence, using a synthetic miR-122a RNA oligonucleotide with phosphorothioate linkaged.
The LNA anti-miR/miR-122a oligo duplex was diluted to 3 μM in 500 μl RNase free H2O, which was then mixed with 500 μl 2× dimerization buffer (final oligo/duplex conc. 1.5 μM, 2× Tm buffer: 200 mM NaCl, 0.2 mM EDTA, 20 mM NaP, pH 7.0, DEPC treated to remove RNases). The mix was first heated to 95 degrees for 3 minutes, then allowed to cool at room temperature (RT) for 30 minutes.
Following RT incubation Tm was measured on Lambda 40 UV/VIS Spectrophotometer with peltier temperature progammer PTP6 using PE Templab software (Perkin Elmer). The temperature was ramped up from 20° C. to 95° C. and then down again to 20° C., continuously recording absorption at 260 nm. First derivative and local maximums of both the melting and annealing was used to assess melting/annealing point (Tm), both should give similar/same Tm values. For the first derivative 91 points was used to calculate the slope.

[4] = tested on: miR-122a; experiment: miR-122a levels in mouse liver by microRNA specific qPCR; assay type: in vivo; details: 25 mg/kg i.v. on 3 successive days; 24 hour after last dose
Method: Total RNA was extracted from liver samples as described above and analysed for miR-122a levels by microRNA specific QPCR.
In vivo study: Ten groups of animals (female C57/BL6; 3 mice per group) were treated in the following manner. Group 1 animals were injected with 0.2 ml saline by i.p. on day 0, day 2 and day 4. Groups 2-10 were dosed by i.p. with three different conc. (25 mg/kg, 5 mg/kg and 1 mg/kg) of either LNA antimiR-122a/SEQ ID NO: 61 (group 2-4), LNA antimir-122a/SEQ ID NO: 66 (group 5-7) or LNA antimir-122a/SEQ ID NO: 63 (group 8-10); the LNA antimir-122a sequences are given in the Table 1. All three LNA antimiR-122a oligonucleotides target the liver-specific miR-122a. The doses were calculated from the Day 0 body weights of each animal.
The animals were sacrificed 48 hours after last dose (Day 6), retro-orbital blood was collected in tubes containing EDTA and the plasma fraction harvested and stored frozen −80° C. for cholesterol analysis. At sacrifice livers were dissected and one portion was cut into 5 mm cubes and immersed in 5 volumes of ice-cold RNAlater. A second portion was snap frozen in liquid nitrogen and stored for cryo-sectioning.
Total RNA was extracted from liver samples using Trizol reagent according to the manufacturer's recommendations (Invitrogen, USA) and analysed for miR-122a levels by microRNA-specific QPCR according to the manufacturer's recommendations (Ambion, USA). […]
NMRI female mice were treated with indicated doses of LNA-antimiR (SEQ ID NO: 61) along with a mismatch control (m, SEQ ID NO: 65), saline and antagomir (SPC3595) for three consecutive days and sacrificed 24 hours after last dose (as in example 11 “old design”, n=5). miR-122 levels were analyzed by qPCR and normalized to the saline treated group.
C57BL/6J female mice were fed on high fat diet for 13 weeks before the initiation of the SEQ ID NO: 63 treatment. […] Both hypercholesterolemic and normal mice were treated i.p. twice weekly with 5 mg/kg SEQ ID NO: 63 and the corresponding mismatch control for a study period of 5½ weeks. Blood samples were collected weekly and total plasma cholesterol was measured during the entire course of the study. Upon sacrificing the mice, liver and blood samples were prepared for total RNA extraction, miRNA and mRNA quantification, assessment of the serum transaminase levels, and liver histology.
The miR-122 and let-7a microRNA levels were quantified with TaqMan microRNA Assay (Applied Biosystems) following the manufacturer's instructions. The RT reaction was diluted ten times in water and subsequently used for real time PCR amplification according to the manufacturer's instructions. A two-fold cDNA dilution series from liver total RNA of a saline-treated animal or mock transfected cells cDNA reaction (using 2.5 times more total RNA than in samples) served as standard to ensure a linear range (Ct versus relative copy number) of the amplification. Applied Biosystems 7500 or 7900 real-time PCR instrument was used for amplification.

[5] = liver, 3 doses of 5 mg/kg/dose i.v. on consecutive days, 24 hours after last dosing
[6] = single dose of 10, 15 or 25 mg/kg, 24 hours after dosing
[7] = single dose of 10, 15 or 25 mg/kg, day 3

Substance: 5′-AsGs^MeCsaststsgsgstsastsTs^MeCsA-3′ (antisense lA*lG*l[5mC]*dA*dT*dT*dG*dG*dT*dA*dT*lT*l[5mC]*lA) [SEQ ID NO: 17]
- ApoB-100 mRNA down-regulation (in words) [1]: completely down-regulated
- down regulation of ApoB-100 mRNA [1, 5]: about 75%
- down regulation of ApoB-100 mRNA ([1]; liver, dosing 3*1 mg/kg i.v.): 50%
- down regulation of ApoB-100 mRNA ([1]; liver, dosing 3*5 mg/kg i.v.): 70%
- down regulation of ApoB-100 mRNA relative to saline ([1]; liver): 70-85%
- reduction of ApoB-100 mRNA expression ([1]; single dose 5 mg/kg): 75%
- duration of dose dependent down regulation of ApoB-100 mRNA ([1]; single dose of 1, 2.5 or 5 mg/kg, C57BL/6J mice): 5 days
- reduction of serum cholesterol ([2]; dosing 3*1 mg/kg): 40%
- reduction of serum cholesterol ([2]; dosing 3*5 mg/kg/dose): 70%
- reduction of serum total cholesterol ([2]; single dose 5 mg/kg, days 3, 5 and 8): 50%
- reduction of serum total cholesterol [2, 6]: 25-40%
- reduction of serum total cholesterol [2, 7]: 70-90%

Substance: 5′-AsGs^MeCsaststsgsgstsastsTs^MeCsAsg-3′ (antisense lA*lG*l[5mC]*dA*dT*dT*dG*dG*dT*dA*dT*lT*l[5mC]*lA*dG) [SEQ ID NO: 16]
- down regulation of ApoB-100 mRNA [1, 5]: 25-30%
- reduction of serum total cholesterol ([2]; 3 doses of 5 mg/kg/dose i.v., at sacrifice, day 3): about 18%

Substance: 5′-CCAttgtcacacTCCa-3′ (antisense l[5mC]*l[5mC]*lA*dT*dT*dG*dT*dC*dA*dC*dA*dC*lT*l[5mC]*l[5mC]*dA) [SEQ ID NO: 62]
- Tm (° C.) [3]: 69 °C

Substance: 5′-Gs^MeCsaststsgsgstsastsTs^MeC-3′ (antisense lG*l[5mC]*dA*dT*dT*dG*dG*dT*dA*dT*lT*l[5mC]) [SEQ ID NO: 34]
- ApoB-100 mRNA down-regulation (in words) [1]: completely down-regulated
- down regulation of ApoB-100 mRNA [1, 5]: about 75%
- down regulation of ApoB-100 mRNA ([1]; liver, dosing 3*1 mg/kg i.v.): 60%
- down regulation of ApoB-100 mRNA ([1]; liver, dosing 3*5 mg/kg i.v.): 90%
- down regulation of ApoB-100 mRNA relative to saline ([1]; liver): 90-95%
- reduction of ApoB-100 mRNA expression ([1]; single dose 2.5 mg/kg): 75%
- ApoB-100 mRNA down regulation ([1]; single dose 5 mg/kg, day 16): 75%
- down regulation of ApoB-100 mRNA ([1]; single dose 5 mg/kg, days 5-16): about 75%
- effect on serum total cholesterol (in words) ([2]; 3 doses of 5 mg/kg/dose i.v., day 3, oligos of different length compared): the best or the most potent effect
- reduction of serum cholesterol ([2]; dosing 3*1 mg/kg): 60%
- reduction of serum total cholesterol ([2]; single dose 5 mg/kg, day 3): 70%
- reduction of serum total cholesterol ([2]; single dose 5 mg/kg, day 8): 60%
- reduction of serum total cholesterol ([2]; single dose 5 mg/kg, day 16): 45%
- reduction of serum total cholesterol [2, 6]: 40-55%
- reduction of serum total cholesterol [2, 7]: 90-95%

Substance: 5′-Gs^MeCsaststsgsgstsastsTs^MeCsA-3′ (antisense lG*l[5mC]*dA*dT*dT*dG*dG*dT*dA*dT*lT*l[5mC]*lA) [SEQ ID NO: 26]
- down regulation of ApoB-100 mRNA ([1]; liver, dosing 3*1 mg/kg i.v.): 60%
- down regulation of ApoB-100 mRNA ([1]; liver, dosing 3*5 mg/kg i.v.): 90%
- reduction of serum cholesterol ([2]; dosing 3*1 mg/kg): 60%

Substance: 5′-cCatTgtCacActCca-3′ (antisense dC*l[5mC]*dA*dT*lT*dG*dT*l[5mC]*dA*dC*lA*dC*dT*l[5mC]*dC*dA) [SEQ ID NO: 60]
- Tm (° C.) [3]: 75 °C

Substance: 5′-ccAttGtcTcaAtcCa-3′ (antisense dC*dC*lA*dT*dT*lG*dT*dC*lT*dC*dA*lA*dT*dC*l[5mC]*dA) [SEQ ID NO: 65, reference compound]
- Tm (° C.) [3]: 46 °C
- miR-122a inhibition in liver (in words) [4]: no miR-122a inhibition was detected
